Reference: patent publication US5580897A, “1,2-dithiins having antifungal activity” (Shaman Pharmaceuticals, Inc., priority 1995, dated 1996)
Converted amounts (≈) assume the structure as drawn.

Tested on: Aspergillus fumigatus ATCC13073 (AF)
Assay: in vitro antifungal activity, minimum inhibitory concentration
Type: cell-based
Details: not given
Description: (§1) The antifungal activities of representative 1,2-dithiin compounds listed below were determined in vitro using three fungal cultures: Candida albicans ATCC10259 (CA), Cryptococcus neoformans ATCC36556 (CN), and Aspergillus fumigatus ATCC13073 (AF).
(§2) The method used to determine in vitro antifungal activity is discussed in McGinnis, M. R., Laboratory Handbook of Medical Mycology, Academic Press, New York, London, p. 661 (1980); and Drouget, E.; Dupont, B.; Improvist, L.; Vivian, M. A.; and Tortorano, A. M.; "Disc Agar Diffusion and Microplate Automatized Techniques for In Vitro Evaluation of Antifungal Agents on Yeast and Sporulated Pathogenic Fungi" in In Vitro and In Vivo Evaluation of Antifungal Agents, Eds. lwata, K. and Vanden Bossche, H., Elsevier Science Publishers, New York, Oxford, p. 303 (1986).

Which MIC does the source give for `CON=CC1=CC=C(C=NOC)SS1` [3,6-Bis[N-methoxyiminomethyl]-1,2-dithiin] here?
Its MIC is 6.3 µg/mL (≈ 27.4 µM).

For `ON=CC1=CC=C(C=NO)SS1` [3,6-[Bis(N-hydroxyiminomethyl)]-1,2-dithiin], which MIC is on record?
Its MIC is 0.4 µg/mL (≈ 1.98 µM).

Which MIC does the source give for `O=CC1=CC=C(C=O)SS1` [3-6-Bis(formyl)-1,2-dithiin, 3,6-Bis(formyl)-1,2-dithiin] here?
Its MIC is 6.3 µg/mL (≈ 36.6 µM).

For `N#C/C=C/C1=CC=C(CO)SS1` [3-(Hydroxymethyl)-6-[2-cyanoethene-1-yl]-1,2-dithiin], which MIC is on record?
Its MIC is 6.3 µg/mL (≈ 31.9 µM).

Which MIC does the source give for `OCC1=CC=C(C=NO)SS1` [3-(Hydroxymethyl)-6-[N-hydroxyiminomethyl]-1,2-dithiin] here?
Its MIC is 1.6 µg/mL (≈ 8.45 µM).

Which MIC does the source give for `CON=CC1=CC=C(CO)SS1` [3-(Hydroxymethyl)-6-[N-methoxyiminomethyl]-1,2-dithiin] here?
Its MIC is 6.3 µg/mL (≈ 31 µM).

Which MIC does the source give for `CCOC(=O)/C=C/C1=CC=C(CO)SS1` [3-(Hydroxymethyl)-6-[ethyl propenoate-3-yl]-1,2-dithiin] here?
Its MIC is 25 µg/mL (≈ 102 µM).

With `COC(=O)/C=C/C1=CC=C(CO)SS1` [3-(Hydroxymethyl)-6-[methyl propenoate-3-yl]-1,2-dithiin] as the compound, how does the MIC read?
The MIC was 6.3 µg/mL (≈ 27.4 µM).

For `N#CC1=CC=C(CO)SS1` [3-(Hydroxymethyl)-6-cyano-1,2-dithiin], which MIC is on record?
Its MIC is 0.8 µg/mL (≈ 4.67 µM).

Which MIC does the source give for `O=CC1=CC=C(CO)SS1` [3-(Hydroxymethyl)-6-formyl-1,2-dithiin, 3-(Hydroxymethyl)-6-aldehydyl-1,2-dithiin] here?
Its MIC is 25 µg/mL (≈ 143 µM).

Tested on: Candida albicans ATCC10259 (CA)
Assay: as above
Type: cell-based
Details: not given
Description: as §1, §2

For `CON=CC1=CC=C(C=NOC)SS1` [3,6-Bis[N-methoxyiminomethyl]-1,2-dithiin], which MIC is on record?
The MIC was 0.8 µg/mL (≈ 3.47 µM).

With `ON=CC1=CC=C(C=NO)SS1` [3,6-[Bis(N-hydroxyiminomethyl)]-1,2-dithiin] as the compound, how does the MIC read?
The MIC was 0.1 µg/mL (≈ 0.494 µM).

With `O=CC1=CC=C(C=O)SS1` [3-6-Bis(formyl)-1,2-dithiin, 3,6-Bis(formyl)-1,2-dithiin] as the compound, how does the MIC read?
Its MIC is 1.6 µg/mL (≈ 9.29 µM).

With `N#C/C=C/C1=CC=C(CO)SS1` [3-(Hydroxymethyl)-6-[2-cyanoethene-1-yl]-1,2-dithiin] as the compound, how does the MIC read?
Its MIC is 12.5 µg/mL (≈ 63.4 µM).

For `OCC1=CC=C(C=NO)SS1` [3-(Hydroxymethyl)-6-[N-hydroxyiminomethyl]-1,2-dithiin], which MIC is on record?
The MIC was 1.6 µg/mL (≈ 8.45 µM).

Which MIC does the source give for `CON=CC1=CC=C(CO)SS1` [3-(Hydroxymethyl)-6-[N-methoxyiminomethyl]-1,2-dithiin] here?
The MIC was 6.3 µg/mL (≈ 31 µM).

Which MIC does the source give for `CCOC(=O)/C=C/C1=CC=C(CO)SS1` [3-(Hydroxymethyl)-6-[ethyl propenoate-3-yl]-1,2-dithiin] here?
Its MIC is 12.5 µg/mL (≈ 51.2 µM).

With `COC(=O)/C=C/C1=CC=C(CO)SS1` [3-(Hydroxymethyl)-6-[methyl propenoate-3-yl]-1,2-dithiin] as the compound, how does the MIC read?
The MIC was 6.3 µg/mL (≈ 27.4 µM).

With `N#CC1=CC=C(CO)SS1` [3-(Hydroxymethyl)-6-cyano-1,2-dithiin] as the compound, how does the MIC read?
The MIC was 0.8 µg/mL (≈ 4.67 µM).

For `O=CC1=CC=C(CO)SS1` [3-(Hydroxymethyl)-6-formyl-1,2-dithiin, 3-(Hydroxymethyl)-6-aldehydyl-1,2-dithiin], which MIC is on record?
The MIC was 12.5 µg/mL (≈ 71.7 µM).

Tested on: Cryptococcus neoformans ATCC36556 (CN)
Assay: as above
Type: cell-based
Details: not given
Description: as §1, §2

With `CON=CC1=CC=C(C=NOC)SS1` [3,6-Bis[N-methoxyiminomethyl]-1,2-dithiin] as the compound, how does the MIC read?
Its MIC is 1.6 µg/mL (≈ 6.95 µM).

Which MIC does the source give for `ON=CC1=CC=C(C=NO)SS1` [3,6-[Bis(N-hydroxyiminomethyl)]-1,2-dithiin] here?
Its MIC is 0.8 µg/mL (≈ 3.96 µM).

For `O=CC1=CC=C(C=O)SS1` [3-6-Bis(formyl)-1,2-dithiin, 3,6-Bis(formyl)-1,2-dithiin], which MIC is on record?
Its MIC is 1.6 µg/mL (≈ 9.29 µM).

Which MIC does the source give for `N#C/C=C/C1=CC=C(CO)SS1` [3-(Hydroxymethyl)-6-[2-cyanoethene-1-yl]-1,2-dithiin] here?
Its MIC is 3.1 µg/mL (≈ 15.7 µM).

With `OCC1=CC=C(C=NO)SS1` [3-(Hydroxymethyl)-6-[N-hydroxyiminomethyl]-1,2-dithiin] as the compound, how does the MIC read?
The MIC was 1.6 µg/mL (≈ 8.45 µM).

With `CON=CC1=CC=C(CO)SS1` [3-(Hydroxymethyl)-6-[N-methoxyiminomethyl]-1,2-dithiin] as the compound, how does the MIC read?
The MIC was 6.3 µg/mL (≈ 31 µM).

For `CCOC(=O)/C=C/C1=CC=C(CO)SS1` [3-(Hydroxymethyl)-6-[ethyl propenoate-3-yl]-1,2-dithiin], which MIC is on record?
The MIC was 6.3 µg/mL (≈ 25.8 µM).

For `COC(=O)/C=C/C1=CC=C(CO)SS1` [3-(Hydroxymethyl)-6-[methyl propenoate-3-yl]-1,2-dithiin], which MIC is on record?
The MIC was 6.3 µg/mL (≈ 27.4 µM).

Which MIC does the source give for `N#CC1=CC=C(CO)SS1` [3-(Hydroxymethyl)-6-cyano-1,2-dithiin] here?
The MIC was 0.8 µg/mL (≈ 4.67 µM).

For `O=CC1=CC=C(CO)SS1` [3-(Hydroxymethyl)-6-formyl-1,2-dithiin, 3-(Hydroxymethyl)-6-aldehydyl-1,2-dithiin], which MIC is on record?
Its MIC is 6.3 µg/mL (≈ 36.2 µM).

Tested on: Aspergillus fumigatus WM-1 (WM-1)
Assay: as above
Type: cell-based
Details: Aspergillus fumigatus WM-1, in vitro
Excerpt: (§3) Additionally, two 1,2-dithiin compounds, 3-(hydroxymethyl)-6-[N-hydroxyiminomethyl]-1,2-dithiin and 3,6-[bis(N-hydroxyiminomethyl)]-1,2-dithiin, were chosen as compounds representative of the 1,2-dithiin class to be tested against a variety of fungi: Candida albicans A-26 (A-26), Candida albicans B311 (B311), Candida krusei GK7831 (CK), Candida parapsilosis CP18 (CP), Candida tropicalis 1525 (CT), Cryptococcus neoformans MI-106 (MI-106), Aspergillus fumigatus WM-1 (WM-1) and Trichophyton rubrum ATCC18762 (TR). The minimum inhibitory concentration (MIC) for 3-(hydroxymethyl)-6-[N-hydroxyiminomethyl]-1,2-dithiin and 3,6-[bis(N-hydroxyiminomethyl)]-1,2-dithiin are shown below in Table II.
as §2

For `ON=CC1=CC=C(C=NO)SS1` [3,6-[Bis(N-hydroxyiminomethyl)]-1,2-dithiin], which MIC is on record?
The MIC was 0.2 µg/mL (≈ 0.989 µM).

With `OCC1=CC=C(C=NO)SS1` [3-(Hydroxymethyl)-6-[N-hydroxyiminomethyl]-1,2-dithiin] as the compound, how does the MIC read?
Its MIC is 1.6 µg/mL (≈ 8.45 µM).

Tested on: Candida albicans A-26 (A-26)
Assay: as above
Type: cell-based
Details: Candida albicans A-26, in vitro
Excerpt: as §3, §2

Which MIC does the source give for `ON=CC1=CC=C(C=NO)SS1` [3,6-[Bis(N-hydroxyiminomethyl)]-1,2-dithiin] here?
The MIC was 0.2 µg/mL (≈ 0.989 µM).

Which MIC does the source give for `OCC1=CC=C(C=NO)SS1` [3-(Hydroxymethyl)-6-[N-hydroxyiminomethyl]-1,2-dithiin] here?
Its MIC is 1.6 µg/mL (≈ 8.45 µM).

Tested on: Candida albicans B311 (B311)
Assay: as above
Type: cell-based
Details: not given
Excerpt: as §3, §2

With `ON=CC1=CC=C(C=NO)SS1` [3,6-[Bis(N-hydroxyiminomethyl)]-1,2-dithiin] as the compound, how does the MIC read?
Its MIC is 0.1 µg/mL (≈ 0.494 µM).

With `OCC1=CC=C(C=NO)SS1` [3-(Hydroxymethyl)-6-[N-hydroxyiminomethyl]-1,2-dithiin] as the compound, how does the MIC read?
The MIC was 1.6 µg/mL (≈ 8.45 µM).

Tested on: Candida krusei GK7831 (CK)
Assay: as above
Type: cell-based
Details: Pichia kudriavzevii
Excerpt: as §3, §2

With `ON=CC1=CC=C(C=NO)SS1` [3,6-[Bis(N-hydroxyiminomethyl)]-1,2-dithiin] as the compound, how does the MIC read?
The MIC was 6.3 µg/mL (≈ 31.1 µM).

Which MIC does the source give for `OCC1=CC=C(C=NO)SS1` [3-(Hydroxymethyl)-6-[N-hydroxyiminomethyl]-1,2-dithiin] here?
Its MIC is 6.3 µg/mL (≈ 33.3 µM).

Tested on: Candida parapsilosis CP18 (CP)
Assay: as above
Type: cell-based
Details: Lodderomyces parapsilosis
Excerpt: as §3, §2

With `ON=CC1=CC=C(C=NO)SS1` [3,6-[Bis(N-hydroxyiminomethyl)]-1,2-dithiin] as the compound, how does the MIC read?
Its MIC is 0.2 µg/mL (≈ 0.989 µM).

With `OCC1=CC=C(C=NO)SS1` [3-(Hydroxymethyl)-6-[N-hydroxyiminomethyl]-1,2-dithiin] as the compound, how does the MIC read?
The MIC was 3.1 µg/mL (≈ 16.4 µM).

Tested on: Candida tropicalis 1525 (CT)
Assay: as above
Type: cell-based
Details: Candida tropicalis 1525, in vitro
Excerpt: as §3, §2

For `ON=CC1=CC=C(C=NO)SS1` [3,6-[Bis(N-hydroxyiminomethyl)]-1,2-dithiin], which MIC is on record?
The MIC was 1.6 µg/mL (≈ 7.91 µM).

Which MIC does the source give for `OCC1=CC=C(C=NO)SS1` [3-(Hydroxymethyl)-6-[N-hydroxyiminomethyl]-1,2-dithiin] here?
Its MIC is 6.3 µg/mL (≈ 33.3 µM).

Tested on: Cryptococcus neoformans MI-106 (MI-106)
Assay: as above
Type: cell-based
Details: Cryptococcus neoformans MI-106, in vitro
Excerpt: as §3, §2

With `ON=CC1=CC=C(C=NO)SS1` [3,6-[Bis(N-hydroxyiminomethyl)]-1,2-dithiin] as the compound, how does the MIC read?
The MIC was 1.6 µg/mL (≈ 7.91 µM).

With `OCC1=CC=C(C=NO)SS1` [3-(Hydroxymethyl)-6-[N-hydroxyiminomethyl]-1,2-dithiin] as the compound, how does the MIC read?
Its MIC is 1.6 µg/mL (≈ 8.45 µM).

Tested on: Trichophyton rubrum ATCC18762 (TR)
Assay: as above
Type: cell-based
Details: not given
Excerpt: as §3, §2

For `ON=CC1=CC=C(C=NO)SS1` [3,6-[Bis(N-hydroxyiminomethyl)]-1,2-dithiin], which MIC is on record?
Its MIC is 0.05 µg/mL (≈ 0.247 µM).

For `OCC1=CC=C(C=NO)SS1` [3-(Hydroxymethyl)-6-[N-hydroxyiminomethyl]-1,2-dithiin], which MIC is on record?
Its MIC is 0.8 µg/mL (≈ 4.23 µM).

Tested on: fungi
Assay: not given
Details: natural products, literature; cited from earlier work

Which antifungal activity does the source give for `C=CC#CC#CC1=CC=C(C#CC)SS1` [Thiarubrine A] here?
The antifungal activity was “possess both antifungal and antiviral activity”.

Tested on: virus
Assay: not given
Details: literature; cited from earlier work

Which antiviral activity does the source give for `C=CC#CC#CC1=CC=C(C#CC)SS1` [Thiarubrine A] here?
Its antiviral activity is “possess both antifungal and antiviral activity”.

Tested on: not given
Assay: not given
Details: literature; cited from earlier work

For `C=CC#CC#CC1=CC=C(C#CC)SS1` [Thiarubrine A], which cytotoxicity is on record?
Its cytotoxicity is “cytotoxic”.
